Patent US6703362B1, “Random peptides that bind to gastro-intestinal tract (GIT) transport receptors and related methods” (Cytogen Corporation, priority 1997, dated 2004)
Peptide text beside a SMILES is read from it. * marks the point of attachment. Dansyl = CN(C)c1cccc2c(S(=O)(=O)*)cccc12

Test system: P100 membrane fractions derived from Caco-2 cells
Test: Dansylated peptide ELISA: relative binding of PAX2 and HAX42 peptides to P100 (ratio to ZElan021)
Settings: ratio to ZElan021 = 1.00
Method: The peptides and proteins were analyzed by a dansylated peptide ELISA method in which 96 well plates were coated overnight at 4° C. with 100 μl/well coating protein (normally 100 μg/ml P100 membrane fraction) in 0.05M carbonate buffer pH9.6. Nonspecific binding was blocked using 200 μl/well, 2% Marvel/PBS for 2 hours at 37° C. prior to incubation with dansylated peptides. The plates were washed three times with PBS/0.05% Tween 20 and after each subsequent incubation step. […] A buffer blank control was included to ensure that background binding to plastic was not due to the antibodies used in the assay system. […] The plates were then incubated with an anti-mouse X-HRP conjugated antibody (Southern Biotech 1060-05) at a 1:10,000 dilution in blocking solution, 100 μl/well for 1 hour at room temperature. Plates were developed using 75 μl/well Bionostics TMB substrate and incubated for approximately 10 minutes. The developing reaction was stopped using Bionostics Red Stop solution (25 μl/well), and the optical density of the plates was read at 650nm.

[1] = HAX42 peptides, first 50 μg/ml column
[2] = HAX42 peptides, second 50 μg/ml column
[3] = PAX2 peptides, first 20 μg/ml column
[4] = PAX2 peptides, first 50 μg/ml column
[5] = PAX2 peptides, second 50 μg/ml column
[6] = PAX2 peptides, second 20 μg/ml column

CC(C)C[C@H](NC(=O)[C@H](C)NC(=O)[C@H](Cc1c[nH]cn1)NC(=O)[C@H](CC(=O)O)NC(=O)[C@H](CO)NC(=O)[C@@H](N)CCCCNS(=O)(=O)c1cccc2c(N(C)C)cccc12)C(=O)NCC(=O)N[C@H](C(=O)N[C@@H](CC(N)=O)C(=O)N[C@@H](CC(C)C)C(=O)N[C@@H](CCCNC(=N)N)C(=O)N[C@@H](CO)C(=O)N[C@@H](CC(=O)O)C(=O)N[C@@H](CC(N)=O)C(=O)N[C@@H](C)C(=O)N[C@@H](CCCCN)C(=O)N[C@@H](CCC(=O)O)C(=O)N1CCC[C@H]1C(=O)NCC(=O)N[C@@H](CC(=O)O)C(=O)N[C@@H](Cc1ccc(O)cc1)C(=O)N[C@@H](CC(N)=O)C(=O)N[C@@H](CS)C(=O)N[C@@H](CS)C(=O)NCC(=O)N[C@@H](CC(N)=O)C(=O)NCC(=O)N[C@@H](CC(N)=O)C(=O)N[C@@H](CO)C(=O)N[C@H](C(N)=O)[C@@H](C)O)[C@@H](C)O [ZElan070] (H-K(Dansyl)SDHALGTNLRSDNAKEPGDYNCCGNGNST-NH2)
Binding value at 20 μg/ml (HAX42 peptides): 0.59
Binding value at 50 μg/ml [1]: 0.97
Binding value at 50 μg/ml [2]: 0.39

CC(C)C[C@H](NC(=O)[C@H](CCCNC(=N)N)NC(=O)[C@H](CCCNC(=N)N)NC(=O)[C@H](CC(N)=O)NC(=O)[C@H](Cc1c[nH]cn1)NC(=O)[C@H](C)NC(=O)[C@H](CO)NC(=O)[C@@H](N)CCCCNS(=O)(=O)c1cccc2c(N(C)C)cccc12)C(=O)N[C@@H](CCCNC(=N)N)C(=O)N[C@H](C(=O)N[C@@H](CCCNC(=N)N)C(N)=O)[C@@H](C)O [ZElan074] (H-K(Dansyl)SAHNRRLRTR-NH2)
Binding value at 50 μg/ml (Jackson Ab) (PAX2 peptides): 0.71
Binding value at 50 μg/ml (Southern Ab) (PAX2 peptides): 0.48
Binding value at 20 μg/ml [3]: 0.06
Binding value at 50 μg/ml [4]: 0.82
Binding value at 50 μg/ml [5]: 0.52

C[C@H](NC(=O)[C@H](CCCNC(=N)N)NC(=O)[C@H](CCCNC(=N)N)NC(=O)[C@H](CC(N)=O)NC(=O)[C@H](Cc1c[nH]cn1)NC(=O)[C@H](CO)NC(=O)[C@H](CO)NC(=O)[C@@H](N)CCCCNS(=O)(=O)c1cccc2c(N(C)C)cccc12)C(=O)N[C@@H](CCCNC(=N)N)C(=O)N[C@H](C(=O)N[C@@H](CCCNC(=N)N)C(N)=O)[C@@H](C)O [ZElan079] (H-K(Dansyl)SSHNRRARTR-NH2)
Binding value at 50 μg/ml (Jackson Ab) (PAX2 peptides): 0.83
Binding value at 50 μg/ml (Southern Ab) (PAX2 peptides): 0.53
Binding value at 20 μg/ml [3]: 0.31
Binding value at 50 μg/ml [4]: 0.97
Binding value at 50 μg/ml [5]: 0.68

CC(C)C[C@H](NC(=O)[C@H](CCCNC(=N)N)NC(=O)[C@H](CCCNC(=N)N)NC(=O)[C@@H](N)CCCCNS(=O)(=O)c1cccc2c(N(C)C)cccc12)C(=O)N[C@@H](CCCNC(=N)N)C(=O)N[C@H](C(=O)N[C@@H](CCCNC(=N)N)C(N)=O)[C@@H](C)O [ZElan058, H2N—K(dns)RRLRTR—CONH2] (H-K(Dansyl)RRLRTR-NH2)
Binding value at 20 μg/ml [3]: 0.05
Binding value at 50 μg/ml [4]: 0.47
Binding value at 50 μg/ml [5]: 0.16

CC[C@H](C)[C@H](NC(=O)[C@H](C)NC(=O)[C@H](CO)NC(=O)[C@@H]1CCCN1C(=O)[C@H](CCCNC(=N)N)NC(=O)[C@H](CCCNC(=N)N)NC(=O)[C@H](CCCNC(=N)N)NC(=O)[C@H](CC(N)=O)NC(=O)[C@H](Cc1ccccc1)NC(=O)[C@@H](NC(=O)[C@H](CCCCN)NC(=O)[C@H](CCCNC(=N)N)NC(=O)CNC(=O)[C@@H](NC(=O)[C@H](CO)NC(=O)[C@H](CC(N)=O)NC(=O)CNC(=O)[C@H](CC(N)=O)NC(=O)CNC(=O)[C@H](CS)NC(=O)[C@H](CS)NC(=O)[C@H](CC(N)=O)NC(=O)[C@H](Cc1ccc(O)cc1)NC(=O)[C@H](CC(=O)O)NC(=O)CNC(=O)[C@@H](N)CCCCNS(=O)(=O)c1cccc2c(N(C)C)cccc12)[C@@H](C)O)C(C)C)C(=O)N1CCC[C@H]1C(=O)N[C@H](C(N)=O)[C@@H](C)O [ZElan061] (H-K(Dansyl)GDYNCCGNGNSTGRKVFNRRRPSAIPT-NH2)
Binding value at 20 μg/ml (HAX42 peptides): 0.20
Binding value at 50 μg/ml [1]: 0.60
Binding value at 50 μg/ml [2]: 0.38

CC(C)C[C@H](NC(=O)[C@H](CCCNC(=N)N)NC(=O)[C@H](CCCNC(=N)N)NC(=O)[C@@H](N)CCCCNS(=O)(=O)c1cccc2c(N(C)C)cccc12)C(=O)N[C@@H](CCCNC(=N)N)C(=O)N[C@H](C(=O)N[C@@H](CCCNC(=N)N)C(=O)N[C@@H](CO)C(=O)N[C@@H](CCCNC(=N)N)C(=O)N1CCC[C@H]1C(=O)N[C@@H](CC(N)=O)C(N)=O)[C@@H](C)O [ZElan056] (H-K(Dansyl)RRLRTRSRPN-NH2)
Binding value at 20 μg/ml [3]: 0.00
Binding value at 50 μg/ml [4]: 0.21
Binding value at 20 μg/ml [6]: 0.16
Binding value at 50 μg/ml [5]: 0.21

C[C@@H](O)[C@H](NC(=O)[C@H](CO)NC(=O)[C@H](CC(N)=O)NC(=O)CNC(=O)[C@H](CC(N)=O)NC(=O)CNC(=O)[C@H](CS)NC(=O)[C@H](CS)NC(=O)[C@H](CC(N)=O)NC(=O)[C@H](Cc1ccc(O)cc1)NC(=O)[C@H](CC(=O)O)NC(=O)CNC(=O)[C@@H]1CCCN1C(=O)[C@H](CCC(=O)O)NC(=O)[C@@H](N)CCCCNS(=O)(=O)c1cccc2c(N(C)C)cccc12)C(=O)NCC(=O)O [ZElan090] (H-K(Dansyl)EPGDYNCCGNGNSTG-OH; C-terminus assumed)
Binding value at 25 μg/ml (HAX42 peptides, first 25 μg/ml column): 2.06
Binding value at 25 μg/ml (HAX42 peptides, second 25 μg/ml column): 1.54
Binding value at 25 μg/ml (HAX42 peptides, third 25 μg/ml column): 2.16

CC(C)C[C@H](NC(=O)[C@H](C)NC(=O)[C@H](Cc1c[nH]cn1)NC(=O)[C@H](CC(=O)O)NC(=O)[C@H](CO)NC(=O)[C@@H](N)CCCCNS(=O)(=O)c1cccc2c(N(C)C)cccc12)C(=O)NCC(=O)N[C@H](C(=O)N[C@@H](CC(N)=O)C(=O)N[C@@H](CC(C)C)C(=O)N[C@@H](CCCNC(=N)N)C(=O)N[C@@H](CO)C(=O)N[C@@H](CC(=O)O)C(=O)N[C@@H](CC(N)=O)C(=O)N[C@@H](C)C(=O)N[C@@H](CCCCN)C(=O)N[C@@H](CCC(=O)O)C(=O)N1CCC[C@H]1C(=O)NCC(N)=O)[C@@H](C)O [ZElan062] (H-K(Dansyl)SDHALGTNLRSDNAKEPG-NH2)
Binding value at 20 μg/ml (HAX42 peptides): 0.11
Binding value at 50 μg/ml [1]: 0.42
Binding value at 50 μg/ml [2]: 0.34

CC(C)C[C@H](NC(=O)[C@H](CCCNC(=N)N)NC(=O)[C@H](CO)NC(=O)[C@@H](NC(=O)[C@H](CCCCN)NC(=O)[C@H](CC(N)=O)NC(=O)[C@H](CCCNC(=N)N)NC(=O)[C@@H](NC(=O)[C@H](CC(N)=O)NC(=O)[C@H](CCCNC(=N)N)NC(=O)[C@@H](N)CCCCNS(=O)(=O)c1cccc2c(N(C)C)cccc12)[C@@H](C)O)[C@@H](C)O)C(=O)N[C@@H](CO)C(=O)N[C@@H](C)C(=O)N[C@@H](CC(N)=O)C(=O)N1CCC[C@H]1C(=O)N[C@@H](Cc1c[nH]cn1)C(=O)N[C@@H](CCCNC(=N)N)C(=O)N[C@@H](CO)C(=O)N[C@@H](Cc1c[nH]cn1)C(=O)N[C@@H](CCCNC(=N)N)C(N)=O [ZElan084, reference compound] (H-K(Dansyl)RNTRNKTSRLSANPHRSHR-NH2)
Binding value at 20 μg/ml [3]: 1.06
Binding value at 50 μg/ml [4]: 1.16
Binding value at 20 μg/ml [6]: 0.93
Binding value at 50 μg/ml [5]: 0.77

CC[C@H](C)[C@H](NC(=O)[C@H](C)NC(=O)[C@H](CO)NC(=O)[C@@H]1CCCN1C(=O)[C@H](CCCNC(=N)N)NC(=O)[C@H](CCCNC(=N)N)NC(=O)[C@H](CC(N)=O)NC(=O)[C@H](Cc1ccccc1)NC(=O)[C@@H](NC(=O)[C@H](CCCCN)NC(=O)[C@H](CCCNC(=N)N)NC(=O)CNC(=O)[C@@H](NC(=O)[C@H](CO)NC(=O)[C@H](CC(N)=O)NC(=O)CNC(=O)[C@H](CC(N)=O)NC(=O)CNC(=O)[C@H](CS)NC(=O)[C@H](CS)NC(=O)[C@H](CC(N)=O)NC(=O)[C@H](Cc1ccc(O)cc1)NC(=O)[C@H](CC(=O)O)NC(=O)CNC(=O)[C@@H]1CCCN1C(=O)[C@@H](N)CCCCNS(=O)(=O)c1cccc2c(N(C)C)cccc12)[C@@H](C)O)C(C)C)C(=O)N1CCC[C@H]1C(=O)N[C@H](C(N)=O)[C@@H](C)O [ZElan072] (H-K(Dansyl)PGDYNCCGNGNSTGRKVFNRRPSAIPT-NH2)
Binding value at 20 μg/ml (HAX42 peptides): 0.83
Binding value at 50 μg/ml [1]: 0.61
Binding value at 50 μg/ml [2]: 0.88

CC(C)C[C@H](NC(=O)[C@H](CC(N)=O)NC(=O)[C@@H](N)CCCCNS(=O)(=O)c1cccc2c(N(C)C)cccc12)C(=O)N[C@@H](CCCNC(=N)N)C(=O)N[C@@H](CO)C(=O)N[C@@H](CC(=O)O)C(=O)N[C@@H](CC(N)=O)C(=O)N[C@@H](C)C(=O)N[C@@H](CCCCN)C(=O)N[C@@H](CCC(=O)O)C(=O)N1CCC[C@H]1C(=O)NCC(=O)N[C@@H](CC(=O)O)C(=O)N[C@@H](Cc1ccc(O)cc1)C(=O)N[C@@H](CC(N)=O)C(=O)N[C@@H](CS)C(=O)N[C@@H](CS)C(=O)NCC(=O)N[C@@H](CC(N)=O)C(=O)NCC(=O)N[C@@H](CC(N)=O)C(=O)N[C@@H](CO)C(=O)N[C@H](C(=O)NCC(=O)N[C@@H](CCCNC(=N)N)C(=O)N[C@@H](CCCCN)C(=O)N[C@H](C(=O)N[C@@H](Cc1ccccc1)C(=O)N[C@@H](CC(N)=O)C(=O)N[C@@H](CCCNC(=N)N)C(N)=O)C(C)C)[C@@H](C)O [ZElan071] (H-K(Dansyl)NLRSDNAKEPGDYNCCGNGNSTGRKVFNR-NH2)
Binding value at 20 μg/ml (HAX42 peptides): 1.22
Binding value at 50 μg/ml [1]: 0.89
Binding value at 50 μg/ml [2]: 0.75
